According to PMC10518010, “The leaderless communication peptide (LCP) class of quorum-sensing peptides is broadly distributed among Firmicutes” (Nature Communications, 2023):
pKd: −log10 of the molar value. Where a SMILES comes first, the peptide text is derived from it. The star is where a group is joined. FITC = O=C1OC2(c3ccc(O)cc3Oc3cc(O)ccc32)c2ccc(NC(=S)*)cc21

Key:
[1] = system: WT S. salivarius; conditions: 30 min, fluorescence and microscopy
Source text: Cells were harvested by centrifugation, and washed three times with sterile PBS. Cells were fixed on the coverslip using 1% glutaraldehyde and 3% formaldehyde. The images were taken using a Nikon Eclipse TiN-STORM super resolution microscope equipped with iXon3 897 EM-CCD camera.

[2] = system: RopB; conditions: S. pyogenes; cited from earlier work
Source text: (§1) Recently, we discovered a new class of leaderless communication peptide (LCP) in human pathogen Streptococcus pyogenes that controls bacterial virulence (Fig. 1a)[10]. Contrary to characterized bacterial peptide signals, the LCP, known as SpeB-inducing peptide (SIP), is synthesized from a 24 base pair ultrasmall open reading frame (usORF) encoding a mature 8 amino acid peptide without the amino acid sequences required for secretion and processing. Consistent with the lack of hallmarks of bacterial peptide signals, the canonical machineries required for the export and import of qs peptides ...

[3] = system: bacterial virulence in animal models of infection; conditions: cited from earlier work
Source text: as §1

[4] = system: secreted cysteine protease SpeB; conditions: S. pyogenes; cited from earlier work
Source text: as §1

[5] = system: specific DNA/promoter sequences; conditions: peer review response; ref "our detailed published findings"; cited from earlier work
Source text: page 13: not provide the desired explanation for the differences in the binding sites of both receptors. Consequently, we provided analyses and explanation in the previous version that is supported by the data and meaningful. - Regarding this point, it has recently been published that RopB-GAS might act as a repressor and not as a transcriptional activator (DOI: 10.26508/lsa.202201809), as the authors show for RopBss. Could this fact explain the differences in their binding sites? Perhaps this point would be interesting to discuss in the manuscript. RESPONSE: We are aware of this study. Howeve ...

[6] = target: FITC-labeled synthetic LCPss (S. salivarius); test: fluorescence polarisation; purified RopBss titrated against FITC-labeled LCPss; 20 mM potassium phosphate pH 6.0, 75 mM NaCl, 2% DMSO, 1 mM EDTA, 0.0005% Tween 20

CC[C@H](C)[C@H](NC(=O)[C@H](CC(C)C)NC(=O)[C@H](Cc1c[nH]c2ccccc12)NC(=O)[C@H](CCSC)NC(=S)Nc1ccc2c(c1)C(=O)OC21c2ccc(O)cc2Oc2cc(O)ccc21)C(=O)N[C@@H](CC(C)C)C(=O)N[C@@H](CC(C)C)C(=O)N[C@@H](Cc1ccccc1)C(=O)N[C@@H](CC(C)C)C(=O)O [FITC-LCPss] ({FITC}-MWLILLFL-OH)
Internalization of exogenously added peptide (in words) [1]: internalization of the exogenously added FITC-labeled synthetic LCPss

MWLLLLFL [SIP, SpeB-inducing peptide of Streptococcus pyogenes, mature 8 amino acid peptide]
Binding to RopB (in words) [2]: binds to a RRNPPA-family transcription activator, Regulator of Protease B (RopB) | Bacterial virulence (in words) [3]: increased bacterial virulence in animal models of infection | SpeB regulation (in words) [4]: upregulation of an adjacently located virulence factor, a secreted cysteine protease SpeB | RopB binding to promoter sequences in the presence of SIP (in words) [5]: with high affinity only in the presence of SIP

RopBss (RopB homolog, cytosolic LCP receptor of Streptococcus salivarius)
pKd [6]: 8.10
